Assay results taken from BindingDB's records for PubMed 2925675 (Nagoya University School of Medicine, 1989).

Columns and labels:
Assay in all cases: Enzyme Assay
Details in all cases: pH 7.4; 30 °C
[1] = target: Casein kinase I isoform alpha (Homo sapiens, UniProt P48729)
Protocol: (§1) Casein kinase activities were determined under the conditions as described by Huang et al (1982).

[2] = target: Casein kinase II subunit alpha (Homo sapiens, UniProt P68400)
Protocol: as §1

[3] = target: Calcium/calmodulin-dependent protein kinase II inhibitor 2 (Bos taurus, UniProt A5D7T0)
[4] = target: Protein kinase C alpha type (Homo sapiens, UniProt P17252)
[5] = target: cAMP-dependent protein kinase type I-alpha regulatory subunit (Bos taurus, UniProt P00514)
Sequence of cAMP-dependent protein kinase type I-alpha regulatory subunit (P00514 whole entry): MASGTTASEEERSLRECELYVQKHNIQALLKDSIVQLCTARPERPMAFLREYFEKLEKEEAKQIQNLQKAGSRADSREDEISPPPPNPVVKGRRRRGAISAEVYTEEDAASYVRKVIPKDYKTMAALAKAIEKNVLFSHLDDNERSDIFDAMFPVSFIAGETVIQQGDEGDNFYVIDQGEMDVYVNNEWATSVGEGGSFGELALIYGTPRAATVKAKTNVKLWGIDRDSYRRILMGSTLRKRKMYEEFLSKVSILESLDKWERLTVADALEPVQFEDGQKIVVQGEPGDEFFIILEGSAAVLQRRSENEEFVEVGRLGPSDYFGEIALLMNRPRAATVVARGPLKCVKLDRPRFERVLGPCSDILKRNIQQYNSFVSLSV

Sequence of Casein kinase I isoform alpha (P48729 whole entry, canonical isoform): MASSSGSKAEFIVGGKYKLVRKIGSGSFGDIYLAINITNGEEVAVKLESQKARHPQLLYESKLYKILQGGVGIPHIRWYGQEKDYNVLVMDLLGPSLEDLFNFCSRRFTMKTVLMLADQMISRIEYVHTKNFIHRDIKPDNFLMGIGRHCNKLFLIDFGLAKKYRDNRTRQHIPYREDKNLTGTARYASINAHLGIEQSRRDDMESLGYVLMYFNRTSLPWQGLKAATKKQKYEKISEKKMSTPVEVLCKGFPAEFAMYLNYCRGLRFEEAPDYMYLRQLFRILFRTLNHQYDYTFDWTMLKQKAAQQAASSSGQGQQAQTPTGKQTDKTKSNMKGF
Sequence of Calcium/calmodulin-dependent protein kinase II inhibitor 2 (A5D7T0 whole entry): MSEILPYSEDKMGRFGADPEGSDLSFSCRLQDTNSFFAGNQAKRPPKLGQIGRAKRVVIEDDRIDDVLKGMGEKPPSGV
Sequence of Casein kinase II subunit alpha (P68400 whole entry): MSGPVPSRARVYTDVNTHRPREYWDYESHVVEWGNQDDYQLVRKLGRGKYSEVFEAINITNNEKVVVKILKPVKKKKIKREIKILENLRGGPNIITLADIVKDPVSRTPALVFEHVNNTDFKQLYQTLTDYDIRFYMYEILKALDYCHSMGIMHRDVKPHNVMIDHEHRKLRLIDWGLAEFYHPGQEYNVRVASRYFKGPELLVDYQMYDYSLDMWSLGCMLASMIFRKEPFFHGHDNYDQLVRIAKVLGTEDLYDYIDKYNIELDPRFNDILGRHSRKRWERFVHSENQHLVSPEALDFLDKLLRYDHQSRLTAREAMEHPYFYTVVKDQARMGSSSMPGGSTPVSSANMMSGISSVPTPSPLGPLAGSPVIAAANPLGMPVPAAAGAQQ

Structure (SMILES)	IC50 [1] [µM]	IC50 [2] [µM]	IC50 [3] [µM]	IC50 [4] [µM]	IC50 [5] [µM]
NCCNS(=O)(=O)c1cccc2cnccc12 [Isoquinoline-5-sulfonic acid (2-amino-ethyl)-amide]	110	> 300	58	18	3.6
NCCNS(=O)(=O)c1cccc2ccncc12 [Isoquinolinesulfonamide, CKI-6]	50	> 300	840	> 1000	> 1000
NCCNS(=O)(=O)c1ccc(Cl)c2ccncc12 [Isoquinolinesulfonamide, CKI-7]	9.5	90	195	> 1000	550
